Results: patent publication US7960377B2 (priority 2008, dated 2011)
pEC50: −log10 of the molar value. Like-named read-outs stand apart in the source and are kept apart here.

What was measured:
Experiment in all cases: cell-based
human CB2 receptor = human CB2 receptor (Homo sapiens, UniProt P34972); assay type: cell-based
rat CB2 receptor = target: T1, rat CB2 receptor (Rattus norvegicus, UniProt Q9QZN9); assay type: cell-based
T1 sequence (Q9QZN9 1-360): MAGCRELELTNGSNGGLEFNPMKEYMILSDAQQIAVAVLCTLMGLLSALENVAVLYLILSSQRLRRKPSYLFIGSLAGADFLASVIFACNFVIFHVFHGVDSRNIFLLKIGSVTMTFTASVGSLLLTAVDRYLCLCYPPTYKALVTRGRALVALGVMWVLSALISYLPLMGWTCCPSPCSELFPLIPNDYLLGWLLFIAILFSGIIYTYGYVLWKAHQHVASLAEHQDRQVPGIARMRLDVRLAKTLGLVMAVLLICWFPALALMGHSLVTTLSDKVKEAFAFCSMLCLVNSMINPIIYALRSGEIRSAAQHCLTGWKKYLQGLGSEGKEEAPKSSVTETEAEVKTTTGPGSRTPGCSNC

human CB1 receptor = human CB1 receptor (Homo sapiens, UniProt P21554); details: for inverse agonist mark, human CB1 receptor: asterisk at the compound number
Chain of human CB1 receptor (P21554 whole entry): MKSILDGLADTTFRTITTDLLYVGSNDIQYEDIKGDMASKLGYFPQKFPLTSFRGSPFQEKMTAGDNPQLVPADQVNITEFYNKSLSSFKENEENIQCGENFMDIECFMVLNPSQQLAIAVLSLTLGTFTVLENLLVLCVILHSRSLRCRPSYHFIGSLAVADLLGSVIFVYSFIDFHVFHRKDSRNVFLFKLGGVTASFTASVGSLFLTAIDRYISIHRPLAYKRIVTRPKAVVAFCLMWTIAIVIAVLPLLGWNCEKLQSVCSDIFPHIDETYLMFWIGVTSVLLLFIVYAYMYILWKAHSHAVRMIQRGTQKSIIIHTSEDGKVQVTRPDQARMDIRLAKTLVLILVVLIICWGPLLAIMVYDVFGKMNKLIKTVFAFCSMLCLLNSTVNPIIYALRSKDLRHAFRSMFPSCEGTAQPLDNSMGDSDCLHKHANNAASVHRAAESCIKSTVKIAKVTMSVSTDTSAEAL

[1] = change in intracellular cAMP, CHO-K1 hCB2 cells, class AR, read-out: EC50 values for human CB2 receptor

Chain of human CB2 receptor (P34972 whole entry): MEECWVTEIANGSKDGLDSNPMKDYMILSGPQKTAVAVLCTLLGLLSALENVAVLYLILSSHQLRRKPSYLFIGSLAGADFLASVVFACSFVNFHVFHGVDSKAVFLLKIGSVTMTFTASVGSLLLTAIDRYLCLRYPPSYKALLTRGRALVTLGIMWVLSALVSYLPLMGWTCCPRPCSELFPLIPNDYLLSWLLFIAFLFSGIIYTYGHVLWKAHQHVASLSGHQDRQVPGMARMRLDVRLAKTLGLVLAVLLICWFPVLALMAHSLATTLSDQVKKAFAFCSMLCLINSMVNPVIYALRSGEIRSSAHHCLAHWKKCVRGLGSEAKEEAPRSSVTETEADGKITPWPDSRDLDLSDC

Row | SMILES | pEC50 (human CB2 receptor) | pEC50 (human CB2 receptor; [1]) | pEC50 (human CB1 receptor) | other results
1 | CC(C)(C)NC(=O)c1cnc2c(c1)N(S(=O)(=O)c1ccc(C#N)cc1)CCO2 [Example 3, N-tert-butyl-1-(4-cyanophenylsulfonyl)-2,3-dihydro-1H-pyrido[2,3-b][1,4]oxazine-7-carboxamide] | ≥ 7.52 |  |  | pEC50 (rat CB2 receptor): ≥ 7.52
2 | CC(C)(C)NC(=O)c1cnc2c(c1)N(S(=O)(=O)c1ccc(F)cc1)CCO2 [Example 7, N-tert-butyl-1-(4-fluoro-phenylsulfonyl)-2,3-dihydro-1H-pyrido[2,3-b][1,4]oxazine-7-carboxamide] | ≥ 7.52 |  |  | pEC50 (rat CB2 receptor): ≥ 7.52
3 | CC(C)(C)CNC(=O)c1cnc2c(c1)N(S(=O)(=O)c1ccc(F)cc1)CCO2 [Example 11] | ≥ 7.52 |  |  | pEC50 (rat CB2 receptor): ≥ 7.52
4 | CC(C)(C)NC(=O)c1cnc2c(c1)N(S(=O)(=O)c1ccc(Cl)cc1)CCO2 [Example 24, N-tert-butyl-1-(4-chlorophenylsulfonyl)-2,3-dihydro-1H-pyrido[2,3-b][1,4]oxazine-7-carboxamide] | ≥ 7.52 |  |  | pEC50 (rat CB2 receptor): ≥ 7.52
5 | O=C(NC1CCCC1)c1cnc2c(c1)N(S(=O)(=O)c1ccc(Cl)cc1)CCO2 [Example 25, 1-(4-chlorophenyl-sulfonyl)-N-cyclopentyl-2,3-dihydro-1H-pyrido[2,3-b][1,4]oxazine-7-carboxamide] | ≥ 7.52 |  |  | pEC50 (rat CB2 receptor): ≥ 7.52
6 | CCN(CCN(C)C)C(=O)c1cnc2c(c1)N(S(=O)(=O)c1ccc(C(F)(F)F)cc1)CCO2 [Example 38, N-(2-(dimethylamino)-ethyl)-N-ethyl-1-(4-(trifluoromethyl)phenylsulf-onyl)-2,3-dihydro-1H-pyrido[2,3-b][1,4]oxazine-7-carboxamide] |  | < 4.52 | < 4.52 | 
7 | CC(C)(C)NC(=O)c1cnc2c(c1)N(S(=O)(=O)c1cc(Cl)cc(Cl)c1)CCO2 [Example 53, N-tert-butyl-1-(3,5-dichlorophenylsulfonyl)-2,3-dihydro-1H-pyrido[2,3-b][1,4]oxazine-7-carboxamide] | < 4.52 |  | < 4.52 | 
8 | CC(C)(C)NC(=O)c1cnc2c(c1)N(S(=O)(=O)Cc1ccc(C(F)(F)F)cc1)CCO2 [Example 63, N-tert-butyl-1-(4-(trifluoromethyl)benzylsulf-onyl)-2,3-dihydro-1H-pyrido[2,3-b][1,4]oxazine-7-carboxamide] |  | < 4.52 | < 4.52 | 
9 | CCS(=O)(=O)N1CCOc2ncc(C(=O)NC(C)(C)C)cc21 [Example 80, N-tert-butyl-1-(ethylsulfonyl)-2,3-dihydro-1H-pyrido[2,3-b][1,4]oxazine-7-carboxamide] | < 4.52 |  | < 4.52 | 
10 | Cc1cccc(CS(=O)(=O)N2CCOc3ncc(C(=O)NC(C)(C)C)cc32)c1 [Example 81, N-tert-butyl-1-(3-methylbenzylsulfonyl)-2,3-dihydro-1H-pyrido[2,3-b][1,4]oxazine-7-carboxamide] |  | < 4.52 | < 4.52 | 
11 | CC(C)(C)NC(=O)c1cnc2c(c1)N(S(=O)(=O)c1ccccc1OC(F)(F)F)CCO2 [Example 84, N-tert-butyl-1-(2-(trifluoromethoxy)phenyl-sulfonyl)-2,3-dihydro-1H-pyrido[2,3-b][1,4]oxazine-7-carboxamide] |  | < 4.52 | < 4.52 | 
12 | CC(C)(C)NC(=O)c1cnc2c(c1)N(S(=O)(=O)c1cccc3ccccc13)CCO2 [Example 87, N-tert-butyl-1-(naphthalen-1-ylsulfonyl)-2,3-dihydro-1H-pyrido[2,3-b][1,4]oxazine-7-carboxamide] | < 4.52 |  | < 4.52 | 
13 | CC(C)(C)NC(=O)c1cnc2c(c1)N(S(=O)(=O)c1ccc3ccccc3c1)CCO2 [Example 88, N-tert-butyl-1-(naphthalen-2-ylsulfonyl)-2,3-dihydro-1H-pyrido[2,3-b][1,4]oxazine-7-carboxamide] | < 4.52 |  | < 4.52 | 
14 | Cc1cc(S(=O)(=O)N2CCOc3ncc(C(=O)NC(C)(C)C)cc32)c(C)s1 [Example 91, N-tert-butyl-1-(2,5-dimethylthiophen-3-ylsulfonyl)-2,3-dihydro-1H-pyrido[2,3-b][1,4]oxazine-7-carboxamide] | < 4.52 |  | < 4.52 | 
15 | O=C(NCCO)c1cnc2c(c1)N(S(=O)(=O)c1ccc(Cl)cc1F)CCO2 [Example 115, 1-(4-chloro-2-fluorophenylsulfonyl)-N-(2-hydroxyethyl)-2,3-dihydro-1H-pyrido[2,3-b][1,4]oxazine-7-carboxamide] |  | < 4.52 | < 4.52 | 
16 | O=C(c1cnc2c(c1)N(S(=O)(=O)c1ccc(Cl)c(Cl)c1)CCO2)N1CCN(c2ccccn2)CC1 [Example 117] | < 4.52 |  |  | inverse agonist mark, human CB1 receptor (human CB1 receptor): 11, 24, 25, 42, 43*, 67, 117*, 121, 124, 131, 132, 148, 150, 151,
17 | O=C(c1cnc2c(c1)N(S(=O)(=O)c1ccc(Cl)c(Cl)c1)CCO2)N1CCN(S(=O)(=O)c2ccccc2)CC1 [Example 118, (1-(3,4-dichlorophenyl-sulfonyl)-2,3-dihydro-1H-pyrido[2,3-b][1,4]oxazin-7-yl)(4-(phenylsulfonyl)piperazin-1-yl)methanone] |  | < 4.52 |  | inverse agonist mark, rat CB2 receptor (rat CB2 receptor; asterisk at the compound number): 118*, 120, 123, 125, 127, 134, 143, 145, 161, 174, 175, 176, 198,
18 | O=C(c1cnc2c(c1)N(S(=O)(=O)c1ccc(Cl)c(Cl)c1)CCO2)N1CC(O)C1 [Example 125, (1-(3,4-dichlorophenyl-sulfonyl)-2,3-dihydro-1H-pyrido[2,3-b][1,4]oxazin-7-yl)(3-hydroxyazetidin-1-yl)methanone] |  | < 4.52 | < 4.52 | 
19 | O=C(N[C@H]1CC[C@H](O)CC1)c1cnc2c(c1)N(S(=O)(=O)c1ccc(Cl)c(Cl)c1)CCO2 [Example 134, 1-(3,4-dichlorophenyl-sulfonyl)-N-(trans-4-hydroxycyclohexyl)-2,3-dihydro-1H-pyrido[2,3-b][1,4]oxazine-7-carboxamide] |  | < 4.52 | < 4.52 | 
20 | CCC(C)(C)NC(=O)c1cnc2c(c1)N(S(=O)(=O)N1CCC(C(F)(F)F)CC1)CCO2 [Example 151, N-tert-pentyl-1-(4-(trifluoromethyl)piperidin-1-ylsulfonyl)-2,3-dihydro-1H-pyrido[2,3-b][1,4]oxazine-7-carboxamide] | ≥ 7.52 |  |  | pEC50 (rat CB2 receptor): ≥ 7.52
21 | CC(C)(C)NC(=O)c1cnc2c(c1)N(S(=O)(=O)N1CCC(c3ccccc3)CC1)CCO2 [Example 158, N-tert-butyl-1-(4-phenylpiperidin-1-ylsulfonyl)-2,3-dihydro-1H-pyrido[2,3-b][1,4]oxazine-7-carboxamide] | < 4.52 |  | < 4.52 | 
22 | CCC(C)(C)NC(=O)c1cnc2c(c1)N(S(=O)(=O)N1CCC(c3ccccc3)CC1)CCO2 [Example 159, N-tert-pentyl-1-(4-phenylpiperidin-1-ylsulfonyl)-2,3-dihydro-1H-pyrido[2,3-b][1,4]oxazine-7-carboxamide] | < 4.52 |  | < 4.52 | 
23 | CC(C)(CO)CNC(=O)c1cnc2c(c1)N(S(=O)(=O)N1CCC(c3ccccc3)CC1)CCO2 [Example 161, N-(3-hydroxy-2,2-dimethylpropyl)-1-(4-phenylpiperidin-1-ylsulfonyl)-2,3-dihydro-1H-pyrido[2,3-b][1,4]oxazine-7-carboxamide] | < 4.52 |  | < 4.52 | 
24 | CN1CCN(S(=O)(=O)N2CCOc3ncc(C(=O)NC(C)(C)C)cc32)CC1 [Example 174, N-tert-butyl-1-(4-methylpiperazin-1-ylsulfonyl)-2,3-dihydro-1H-pyrido[2,3-b][1,4] oxazine-7-carboxamide] | < 4.52 |  | < 4.52 | 
25 | CC(C)(C)NC(=O)c1cnc2c(c1)N(S(=O)(=O)N1CCc3ccccc3C1)CCO2 [Example 188, N-tert-butyl-1-(3,4-dihydroisoquinolin-2(1H)-ylsulfonyl)-2,3-dihydro-1H-pyrido[2,3-b][1,4]oxazine-7-carboxamide] | < 4.52 |  |  | inverse agonist mark, human CB1 receptor (human CB1 receptor): 152, 154, 155, 165, 184, 185, 187, 188*, 212, 214, 217, 227
26 | CCC(C)(C)NC(=O)c1cnc2c(c1)N(S(=O)(=O)N1CCc3ccccc3C1)CCO2 [Example 189, 1-(3,4-dihydroisoquinolin-2(1H)-ylsulfonyl)-N-tert-pentyl-2,3-dihydro-1H-pyrido[2,3-b][1,4]oxazine-7-carboxamide] | < 4.52 |  | < 4.52 | 
27 | CC(C)(CO)NC(=O)c1cnc2c(c1)N(S(=O)(=O)N1CCc3ccccc3C1)CCO2 [Example 190, 1-(3,4-dihydroisoquinolin-2(1H)-ylsulfonyl)-N-(1-hydroxy-2-methylpropan-2-yl)-2,3-dihydro-1H-pyrido[2,3-b][1,4]oxazine-7-carboxamide] | < 4.52 |  | < 4.52 | 
28 | O=C(NC1(C(=O)O)CCC1)c1cnc2c(c1)N(S(=O)(=O)c1ccc(C(F)(F)F)cc1)CCO2 [Example 208, 1-(1-(4-(trifluoromethyl)phenylsulfonyl)-2,3-dihydro-1H-pyrido[2,3-b][1,4]oxazine-7-carboxamido)cyclobutanecarboxylic acid] |  | < 4.52 | < 4.52 | 
29 | CC1(C)CNC(c2cnc3c(c2)N(S(=O)(=O)c2ccc(C(F)(F)F)cc2)CCO3)=N1 [Example 224, 7-(4,4-dimethyl-4,5-dihydro-1H-imidazol-2-yl)-1-(4-(trifluoromethyl)phenylsulfonyl)-2,3-dihydro-1H-pyrido[2,3-b][1,4]oxazine] |  | < 4.52 | < 4.52 | 
